Results taken from patent US8802634B2, “CD40-L Inhibitory Peptides” (Phylogica Limited, priority 2008, dated 2014).
Entries after “also recorded” stand apart in the source; their conditions may differ. Where a SMILES comes first, the peptide text is derived from it. Bridges are numbered along the chain shown (N, C = ends). Roman numbers before positions name the chains, in order. Where no end group is shown, it is not given here. [ ]: non-standard residue; d: D form. AEEA = NCCOCCOCC(=O)O

Experiments:
[1] = tested on: TNFα; assay: TNFα-induced cytotoxicity (control); type: cell-based; details: specificity control
Experimental: (§1) In these assays, CD40L induced CD86 expression in a concentration-dependent manner in the absence of a peptidyl inhibitor of the present invention with an EC50 value of about 9 nM (FIG. 6d, 6e). As a control in these assays, LPS-induced expression of CD86 mediated by the Toll-like receptors TLR 2/4, and TNFα-induced cytoxicity, were also assayed to exclude effects mediated by ligands other than CD40L.

[2] = molecular target: T1, CD40L/CD40-Fc (Homo sapiens, UniProt P29965); assay: Chemiluminescent proximity assay (Alphascreen) of CD40L-CD40 interaction; type: binding; details: for inhibition of CD40L-CD40 interaction relative to monomeric peptide controls: qualitative
T1 sequence (P29965 113-261 limits assumed): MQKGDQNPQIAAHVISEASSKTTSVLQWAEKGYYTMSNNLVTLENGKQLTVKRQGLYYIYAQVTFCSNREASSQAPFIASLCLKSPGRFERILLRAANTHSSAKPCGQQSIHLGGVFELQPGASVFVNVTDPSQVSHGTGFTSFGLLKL
Experimental: In one example, the Alphascreen assay (PerkinElmer) was employed according to the manufacturer's instructions.
Homodimers and heterodimers were also assayed by chemiluminescent proximity assay for their ability to inhibit CD40L-CD40 interaction.

[3] = molecular target: CD40L-induced CD86 expression on primary B-cells (Homo sapiens, UniProt P29965); assay: Inhibition of CD40L-induced CD86 expression on primary B-cells (FACS); type: cell-based; details: for inhibition of CD40L-induced CD86 expression (qualitative): figure legends
CD40L-induced CD86 expression on primary B-cells, sequence (P29965 whole entry): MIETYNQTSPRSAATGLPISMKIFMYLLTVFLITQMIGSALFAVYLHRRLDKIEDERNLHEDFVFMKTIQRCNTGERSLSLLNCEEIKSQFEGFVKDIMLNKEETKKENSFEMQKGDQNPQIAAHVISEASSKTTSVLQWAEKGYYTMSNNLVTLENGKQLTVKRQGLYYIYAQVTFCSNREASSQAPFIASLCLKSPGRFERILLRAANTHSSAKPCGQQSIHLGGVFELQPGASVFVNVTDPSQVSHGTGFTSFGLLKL
CD40L-induced CD86 expression on primary B-cells, sequence (P25942 21-277 partner): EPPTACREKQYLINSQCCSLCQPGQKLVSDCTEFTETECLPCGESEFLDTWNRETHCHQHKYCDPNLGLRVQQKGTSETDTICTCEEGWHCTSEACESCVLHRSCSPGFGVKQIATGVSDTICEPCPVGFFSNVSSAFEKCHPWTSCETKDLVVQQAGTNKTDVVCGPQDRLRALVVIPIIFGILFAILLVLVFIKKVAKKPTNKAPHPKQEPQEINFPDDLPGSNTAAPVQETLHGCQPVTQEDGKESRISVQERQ
Experimental: In one example, the ability of a peptide, analog or derivative of the invention to inhibit or reduce or delay expression of CD86 on primary B-cells was determined in the presence and absence of the peptides, analogs and derivatives of the invention. In particular, CD86 expression was determined by FACS.
as §1
In a similar series of bioassays, dimeric forms of the CD40L peptide inhibitors were also tested for their ability to inhibit or reduce CD40L-induced expression of CD86 on primary B-cells.

[4] = tested on: T cells from transgenic D011.10 mice; assay: Antigen-specific T-cell proliferation assay; type: cell-based; details: 10 μM or 20 μM peptide
Experimental: Briefly, pooled DLN (consisting parathymic and posterior mediastinal nodes) were collected from transgenic D011.10 mice engineered to express ovalbumin-specific T cell receptors (TCRs). Enriched T-cell suspensions were prepared and stimulated with 10 μg/ml ovalbumin in the presence or absence of 10 μM or 20 μM concentration of anti-CD40L peptidyl inhibitors. The peptides tested were PEGylated serine derivatives and/or chiral analogs of peptides CD40L M1—6, CD40L M1—9, CD40L M1—18, CD40L M1—30, CD40L M1—42, CD40L M1—50, CD40L M7—82 and CD40L M7—206. Cells were cultured for 24-72 hrs and then pulsed with [^3H]thymidine for another 24 hr to measure T-cell proliferation.

[5] = molecular target: T2, CD40L (Homo sapiens, UniProt P29965); assay: Octet Red label-free association/dissociation analysis; type: binding; details: versus CD40L M1—206
T2 construct: measures of the “on” and “off” rates of the peptides relative to soluble CD40L
T2 sequence (P29965 113-261 limits assumed): T1 sequence (P29965 113-261 limits assumed)
Experimental: Label-free analyses of the associations and dissociations of base peptides and serine derivatives of base peptides with the CD40L target protein were performed using the Octet Red system (ForteBio, Inc., USA) according to the manufacturer's instructions. These analyses provide kinetic constants of CD40L binding activity, especially the association rate constant (Ka) and dissociation rate constant (Kd) of binding, i.e., measures of the “on” and “off” rates of the peptides relative to soluble CD40L.

Compound: CC[C@H](C)[C@H](NC(=O)[C@H](CO)NC(=O)[C@H](Cc1c[nH]c2ccccc12)NC(=O)[C@H](CCC(N)=O)NC(=O)[C@@H](NC(=O)[C@@H]1CCCN1C(=O)[C@H](Cc1ccccc1)NC(=O)[C@H](Cc1ccccc1)NC(=O)[C@H](Cc1c[nH]c2ccccc12)NC(=O)CNC(=O)[C@H](Cc1ccc(O)cc1)NC(=O)[C@H](CCCCN)NC(=O)[C@H](CC(C)C)NC(=O)[C@@H](NC(=O)[C@H](Cc1c[nH]cn1)NC(=O)[C@H](CO)NC(=O)[C@H](CCCNC(=N)N)NC(=O)[C@H](Cc1ccc(O)cc1)NC(=O)[C@@H]1CCCN1C(=O)[C@@H](NC(=O)[C@H](Cc1ccccc1)NC(=O)[C@@H]1CCCN1C(=O)[C@@H](N)CC(C)C)C(C)C)C(C)C)C(C)C)C(=O)N[C@@H](Cc1ccccc1)C(=O)N[C@@H](C)C(=O)N[C@H](C(=O)N[C@@H](CC(C)C)C(=O)N1CCC[C@H]1C(=O)N[C@@H](Cc1ccccc1)C(=O)N[C@@H](CCC(N)=O)C(=O)N[C@@H](Cc1ccc(O)cc1)C(=O)N[C@@H](CC(C)C)C(=O)N[C@@H](Cc1c[nH]cn1)C(=O)N[C@@H](CCCNC(=N)N)C(=O)N[C@@H](CO)C(=O)N[C@@H](CCCNC(=N)N)C(=O)O)C(C)C [CD40L M1_18s] (H-LPFVPYRSHVLKYGWFFPVQWSIFAVLPFQYLHRSR-OH; N-terminus and C-terminus assumed)
- inhibition of rTNFα-induced cytoxicity ([1]; listed as M1—18*S): lack of inhibition
- inhibition of rTNFα-induced cytoxicity ([1]; listed as M1—18S): no significant inhibition

Compound: CC[C@H](C)[C@H](NC(=O)[C@H](CO)NC(=O)[C@H](Cc1ccccc1)NC(=O)[C@@H](NC(=O)[C@H](CC(N)=O)NC(=O)[C@H](CCCCN)NC(=O)[C@@H](NC(=O)[C@H](CO)NC(=O)[C@H](Cc1ccccc1)NC(=O)[C@@H]1CCCN1C(=O)[C@H](Cc1c[nH]cn1)NC(=O)COCCOCCNC(=O)[C@@H](N)CSSC[C@H](N)C(=O)NCCOCCOCC(=O)N[C@@H](Cc1c[nH]cn1)C(=O)N1CCC[C@H]1C(=O)N[C@@H](Cc1ccccc1)C(=O)N[C@@H](CO)C(=O)N[C@H](C(=O)N[C@@H](CCCCN)C(=O)N[C@@H](CC(N)=O)C(=O)N[C@H](C(=O)N[C@@H](Cc1ccccc1)C(=O)N[C@@H](CO)C(=O)N[C@H](C(=O)N[C@@H](Cc1c[nH]c2ccccc12)C(=O)N[C@@H](CC(N)=O)C(=O)N[C@@H](Cc1ccccc1)C(=O)N[C@@H](Cc1ccccc1)C(=O)N[C@@H](CO)C(=O)N[C@H](C(=O)N[C@@H](Cc1ccc(O)cc1)C(=O)O)C(C)C)[C@@H](C)CC)C(C)C)[C@@H](C)CC)[C@@H](C)CC)C(C)C)C(=O)N[C@@H](Cc1c[nH]c2ccccc12)C(=O)N[C@@H](CC(N)=O)C(=O)N[C@@H](Cc1ccccc1)C(=O)N[C@@H](Cc1ccccc1)C(=O)N[C@@H](CO)C(=O)N[C@H](C(=O)N[C@@H](Cc1ccc(O)cc1)C(=O)O)C(C)C [Cys_M1_6S homodimer] (I: H-C[AEEA]HPFSIKNVFSIWNFFSVY-OH / II: H-C[AEEA]HPFSIKNVFSIWNFFSVY-OH; disulfide I:1-II:1; C-terminus assumed)
- inhibition of CD40L-CD40 interaction relative to monomeric peptide controls [2]: enhanced inhibition
- inhibition of CD40L-induced CD86 expression (qualitative) [3]: enhanced inhibition

Compound: HPFSIKNVFSIWNFFSVY [CD40L M1_6s]
- inhibition of rTNFα-induced cytoxicity [1]: lack of inhibition; also recorded: no significant inhibition

Compound: SKVRMQFDIINFPVNVGFLVFSH [CD40L M1_42rd]
- relative performance in T-cell proliferation assay [4]: best-performing

Compound: PFTWRPTIFWIIQLIVYMRHFGGGGSRSELLRENICRYVSLFDHPLQRNTPLDELRFVIFDTETSGFDLVKDRILSIR [CD40L D1_0014]
- fold higher affinity for CD40L than base monomeric peptide [5]: 6 fold

Compound: AQWWHHRFSFLGAIQFFERGAAD [CD40L M1_30rd]
- relative performance in T-cell proliferation assay [4]: best-performing

Compound: CC(C)C[C@H](NC(=O)[C@H](Cc1ccc(O)cc1)NC(=O)[C@H](CC(=O)O)NC(=O)[C@H](CCCNC(=N)N)NC(=O)[C@H](CCCNC(=N)N)NC(=O)[C@H](Cc1ccccc1)NC(=O)[C@H](CO)NC(=O)[C@H](CO)NC(=O)[C@H](Cc1ccc(O)cc1)NC(=O)[C@H](Cc1ccccc1)NC(=O)[C@H](CCCNC(=N)N)NC(=O)[C@H](Cc1ccccc1)NC(=O)[C@H](CC(C)C)NC(=O)[C@H](Cc1ccccc1)NC(=O)[C@H](Cc1ccccc1)NC(=O)[C@H](CC(C)C)NC(=O)[C@H](CC(N)=O)NC(=O)[C@H](Cc1ccc(O)cc1)NC(=O)[C@H](CCCNC(=N)N)NC(=O)[C@@H]1CCCN1C(=O)[C@@H]1CCCN1)C(=O)N[C@@H](Cc1ccc(O)cc1)C(=O)N[C@@H](Cc1ccccc1)C(=O)O [CD40L M1_9s] (H-PPRYNLFFLFRFYSSFRRDYLYF-OH; N-terminus and C-terminus assumed)
- EC50 ([2]; monomeric and dimeric peptides, Table 5, read-out: EC50): 564 nM
- EC50 ([3]; monomeric and dimeric peptides, Table 7, read-out: EC50): 564 nM
- inhibition of rTNFα-induced cytoxicity [1]: lack of inhibition; also recorded: no significant inhibition

Compound: I: H-C[AEEA]PPRYNLFFLFRFYSSFRRDYLYF / II: H-C[AEEA]HPFSIKNVFSIWNFFSVY (disulfide I:1-II:1) [Cys_M1_6S-Cys_M1_9S heterodimer]
- inhibition of CD40L-CD40 interaction relative to monomeric peptide controls [2]: enhanced inhibition
- inhibition of CD40L-induced CD86 expression (qualitative) [3]: enhanced inhibition
